Source: the kinase profiling compilation of Christmann-Franck et al. (2016)

Key:
Assay in all cases: KINOMEscan competition binding
Conditions in all cases: compound 10.0 µM
ACVRL1 (human) = ACVRL1 (human) (UniProt P37023)
AKT3 (human) = AKT3 (human) (UniProt Q9Y243)
AURKA (human) = AURKA (human) (UniProt O14965)
BRAF (human) = BRAF (human) (UniProt P15056)
CAMK1G (human) = CAMK1G (human) (UniProt Q96NX5)
CDC2L2 (human) = CDC2L2 (human) (UniProt Q9UQ88)
CDC42BPB (human) = CDC42BPB (human) (UniProt Q9Y5S2)
CDK11B (human) = CDK11B (human) (UniProt P21127)
CDK14 (human) = CDK14 (human) (UniProt O94921)
CDK18 (human) = CDK18 (human) (UniProt Q07002)
CDK4 CCND1 (human) = CDK4 CCND1 (human) (UniProt P11802+P24385)
CLK1 (human) = CLK1 (human) (UniProt P49759)
Chain of CLK1 (human) (P49759 whole entry, looked up): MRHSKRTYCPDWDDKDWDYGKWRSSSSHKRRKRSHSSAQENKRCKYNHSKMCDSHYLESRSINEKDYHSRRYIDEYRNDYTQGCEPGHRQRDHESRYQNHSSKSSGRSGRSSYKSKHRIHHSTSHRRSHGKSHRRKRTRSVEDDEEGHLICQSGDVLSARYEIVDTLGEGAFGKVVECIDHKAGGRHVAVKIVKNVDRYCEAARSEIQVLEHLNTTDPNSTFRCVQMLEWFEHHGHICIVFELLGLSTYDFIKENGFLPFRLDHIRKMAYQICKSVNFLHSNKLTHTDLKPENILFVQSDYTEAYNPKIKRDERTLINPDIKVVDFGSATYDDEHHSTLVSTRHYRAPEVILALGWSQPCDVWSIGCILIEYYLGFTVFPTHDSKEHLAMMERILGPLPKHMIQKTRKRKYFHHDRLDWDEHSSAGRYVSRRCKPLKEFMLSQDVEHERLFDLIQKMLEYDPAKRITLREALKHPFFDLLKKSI

[1] = system: EGFR (human), P00533 [A750P; 747-749 del]
[2] = system: EGFR (human), P00533 [L858R]
EPHA4 (human) = EPHA4 (human) (UniProt P54764)
EPHA7 (human) = EPHA7 (human) (UniProt Q15375)
ERBB2 (human) = ERBB2 (human) (UniProt P04626)
HIPK1 (human) = HIPK1 (human) (UniProt Q86Z02)
HIPK4 (human) = HIPK4 (human) (UniProt Q8NE63)
[3] = target: JAK1 JH1 catalytic (human) (UniProt P23458)
[4] = system: KIT (human), P10721 [A829P]
[5] = system: KIT (human), P10721 [V559D/V654A]
LIMK1 (human) = LIMK1 (human) (UniProt P53667)
Chain of LIMK1 (human) (P53667 whole entry, looked up): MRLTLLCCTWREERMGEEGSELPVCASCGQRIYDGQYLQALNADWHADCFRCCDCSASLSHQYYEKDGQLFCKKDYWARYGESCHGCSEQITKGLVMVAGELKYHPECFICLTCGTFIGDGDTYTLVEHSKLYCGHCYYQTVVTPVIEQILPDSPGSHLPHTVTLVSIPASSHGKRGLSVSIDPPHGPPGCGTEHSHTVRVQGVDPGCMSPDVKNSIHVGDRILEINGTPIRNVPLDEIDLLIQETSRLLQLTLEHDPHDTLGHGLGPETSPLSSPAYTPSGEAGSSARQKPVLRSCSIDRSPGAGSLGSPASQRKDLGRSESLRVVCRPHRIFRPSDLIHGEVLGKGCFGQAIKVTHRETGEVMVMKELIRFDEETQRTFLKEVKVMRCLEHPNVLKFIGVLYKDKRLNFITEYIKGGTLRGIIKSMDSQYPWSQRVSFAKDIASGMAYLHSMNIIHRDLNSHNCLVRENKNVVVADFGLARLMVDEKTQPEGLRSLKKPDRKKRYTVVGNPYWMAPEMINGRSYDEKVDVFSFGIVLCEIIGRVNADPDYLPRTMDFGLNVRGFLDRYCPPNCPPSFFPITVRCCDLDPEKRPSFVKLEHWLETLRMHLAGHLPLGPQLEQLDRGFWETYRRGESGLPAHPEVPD

MAP2K7 (human) = MAP2K7 (human) (UniProt O14733)
MAP4K4 (human) = MAP4K4 (human) (UniProt O95819)
MINK1 (human) = MINK1 (human) (UniProt Q8N4C8)
Chain of MINK1 (human) (Q8N4C8 whole entry, looked up): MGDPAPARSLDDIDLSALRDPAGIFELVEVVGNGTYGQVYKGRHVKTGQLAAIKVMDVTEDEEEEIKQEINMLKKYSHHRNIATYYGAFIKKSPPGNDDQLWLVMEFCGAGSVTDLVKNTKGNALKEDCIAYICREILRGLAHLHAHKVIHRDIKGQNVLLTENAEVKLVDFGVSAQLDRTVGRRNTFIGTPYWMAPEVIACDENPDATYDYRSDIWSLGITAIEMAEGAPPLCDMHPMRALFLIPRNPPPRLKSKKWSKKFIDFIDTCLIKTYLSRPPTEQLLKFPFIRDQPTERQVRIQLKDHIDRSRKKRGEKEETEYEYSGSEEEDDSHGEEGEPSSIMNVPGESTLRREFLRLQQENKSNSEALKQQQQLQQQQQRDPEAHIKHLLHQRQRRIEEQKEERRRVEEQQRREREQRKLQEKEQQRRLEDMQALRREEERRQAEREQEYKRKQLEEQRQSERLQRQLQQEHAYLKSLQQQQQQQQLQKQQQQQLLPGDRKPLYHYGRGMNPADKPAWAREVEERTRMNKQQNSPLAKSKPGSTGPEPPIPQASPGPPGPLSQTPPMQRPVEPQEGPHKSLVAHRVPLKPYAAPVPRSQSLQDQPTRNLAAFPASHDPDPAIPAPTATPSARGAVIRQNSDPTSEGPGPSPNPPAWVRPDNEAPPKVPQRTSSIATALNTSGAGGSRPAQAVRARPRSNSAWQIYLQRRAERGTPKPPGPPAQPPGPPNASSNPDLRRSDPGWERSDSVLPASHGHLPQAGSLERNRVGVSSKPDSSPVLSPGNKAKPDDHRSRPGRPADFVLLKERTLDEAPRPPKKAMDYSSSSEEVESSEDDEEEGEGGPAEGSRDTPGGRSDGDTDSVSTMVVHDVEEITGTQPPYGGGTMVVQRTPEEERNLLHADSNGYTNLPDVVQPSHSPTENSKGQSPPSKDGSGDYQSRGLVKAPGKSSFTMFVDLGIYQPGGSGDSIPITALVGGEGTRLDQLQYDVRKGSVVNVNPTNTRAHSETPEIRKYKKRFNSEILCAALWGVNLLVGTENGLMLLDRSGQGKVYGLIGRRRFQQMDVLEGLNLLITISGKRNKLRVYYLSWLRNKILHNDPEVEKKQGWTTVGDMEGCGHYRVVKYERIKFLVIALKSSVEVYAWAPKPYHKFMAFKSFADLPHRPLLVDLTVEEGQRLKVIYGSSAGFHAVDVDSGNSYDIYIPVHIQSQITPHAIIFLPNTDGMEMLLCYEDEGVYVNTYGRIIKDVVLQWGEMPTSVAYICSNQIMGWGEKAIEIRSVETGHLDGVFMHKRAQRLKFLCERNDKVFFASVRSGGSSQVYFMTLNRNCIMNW

MYO3B (human) = MYO3B (human) (UniProt Q8WXR4)
NEK2 (human) = NEK2 (human) (UniProt P51955)
NEK3 (human) = NEK3 (human) (UniProt P51956)
Chain of NEK3 (human) (P51956 whole entry, looked up): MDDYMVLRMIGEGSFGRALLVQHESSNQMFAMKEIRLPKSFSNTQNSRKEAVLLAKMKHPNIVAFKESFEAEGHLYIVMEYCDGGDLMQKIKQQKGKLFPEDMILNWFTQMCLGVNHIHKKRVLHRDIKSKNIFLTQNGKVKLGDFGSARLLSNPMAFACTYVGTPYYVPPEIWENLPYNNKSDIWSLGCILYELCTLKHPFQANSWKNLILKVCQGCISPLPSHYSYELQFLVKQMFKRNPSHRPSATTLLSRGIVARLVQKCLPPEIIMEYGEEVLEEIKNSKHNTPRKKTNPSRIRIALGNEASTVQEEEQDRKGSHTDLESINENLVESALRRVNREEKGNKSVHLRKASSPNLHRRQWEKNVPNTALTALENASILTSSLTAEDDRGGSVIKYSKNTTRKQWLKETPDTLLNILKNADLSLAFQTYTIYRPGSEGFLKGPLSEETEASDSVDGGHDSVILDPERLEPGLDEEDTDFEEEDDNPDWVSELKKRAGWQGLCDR

NEK6 (human) = NEK6 (human) (UniProt Q9HC98)
NUAK1 (human) = NUAK1 (human) (UniProt O60285)
PDGFRB (human) = PDGFRB (human) (UniProt P09619)
PLK2 (human) = PLK2 (human) (UniProt Q9NYY3)
PRKACA (human) = PRKACA (human) (UniProt P17612)
PRKCE (human) = PRKCE (human) (UniProt Q02156)
RAF1 (human) = RAF1 (human) (UniProt P04049)
RET (human) = RET (human) (UniProt P07949)
RIOK2 (human) = RIOK2 (human) (UniProt Q9BVS4)
SIK2 (human) = SIK2 (human) (UniProt Q9H0K1)
SRPK3 (human) = SRPK3 (human) (UniProt Q9UPE1)
TLK1 (human) = TLK1 (human) (UniProt Q9UKI8)
Chain of TLK1 (human) (Q9UKI8 whole entry, looked up): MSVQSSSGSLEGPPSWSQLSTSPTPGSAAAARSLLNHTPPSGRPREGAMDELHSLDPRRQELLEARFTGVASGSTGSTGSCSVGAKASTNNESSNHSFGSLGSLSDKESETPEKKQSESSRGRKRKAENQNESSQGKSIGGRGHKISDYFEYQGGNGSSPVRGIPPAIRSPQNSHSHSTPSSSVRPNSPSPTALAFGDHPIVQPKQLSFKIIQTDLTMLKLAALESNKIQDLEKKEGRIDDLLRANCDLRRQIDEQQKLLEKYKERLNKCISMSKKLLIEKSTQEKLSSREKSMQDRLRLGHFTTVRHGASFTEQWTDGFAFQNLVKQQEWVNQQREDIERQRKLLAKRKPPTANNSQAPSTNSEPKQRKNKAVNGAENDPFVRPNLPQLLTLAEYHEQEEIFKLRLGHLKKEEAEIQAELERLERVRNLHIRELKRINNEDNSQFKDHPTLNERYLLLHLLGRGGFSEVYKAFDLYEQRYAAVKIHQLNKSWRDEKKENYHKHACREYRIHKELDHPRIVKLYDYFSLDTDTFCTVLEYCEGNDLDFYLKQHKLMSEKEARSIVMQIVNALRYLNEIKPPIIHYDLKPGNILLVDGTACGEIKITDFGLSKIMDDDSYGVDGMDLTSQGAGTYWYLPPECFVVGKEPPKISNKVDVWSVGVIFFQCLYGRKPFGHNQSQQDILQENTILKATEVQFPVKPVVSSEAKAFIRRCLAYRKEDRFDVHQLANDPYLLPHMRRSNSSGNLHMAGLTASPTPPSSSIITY

TXK (human) = TXK (human) (UniProt P42681)

Chain of AURKA (human) (O14965 whole entry, looked up): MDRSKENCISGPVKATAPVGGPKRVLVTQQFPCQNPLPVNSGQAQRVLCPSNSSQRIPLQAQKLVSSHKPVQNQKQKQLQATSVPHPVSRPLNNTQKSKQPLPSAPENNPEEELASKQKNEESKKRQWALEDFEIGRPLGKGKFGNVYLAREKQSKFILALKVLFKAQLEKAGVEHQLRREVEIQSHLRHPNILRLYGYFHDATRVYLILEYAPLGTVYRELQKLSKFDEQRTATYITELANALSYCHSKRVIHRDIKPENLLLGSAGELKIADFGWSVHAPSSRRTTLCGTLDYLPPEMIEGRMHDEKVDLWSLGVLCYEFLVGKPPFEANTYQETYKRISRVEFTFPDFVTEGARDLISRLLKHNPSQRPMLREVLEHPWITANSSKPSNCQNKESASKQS
Chain of CDC2L2 (human) (Q9UQ88 whole entry, looked up): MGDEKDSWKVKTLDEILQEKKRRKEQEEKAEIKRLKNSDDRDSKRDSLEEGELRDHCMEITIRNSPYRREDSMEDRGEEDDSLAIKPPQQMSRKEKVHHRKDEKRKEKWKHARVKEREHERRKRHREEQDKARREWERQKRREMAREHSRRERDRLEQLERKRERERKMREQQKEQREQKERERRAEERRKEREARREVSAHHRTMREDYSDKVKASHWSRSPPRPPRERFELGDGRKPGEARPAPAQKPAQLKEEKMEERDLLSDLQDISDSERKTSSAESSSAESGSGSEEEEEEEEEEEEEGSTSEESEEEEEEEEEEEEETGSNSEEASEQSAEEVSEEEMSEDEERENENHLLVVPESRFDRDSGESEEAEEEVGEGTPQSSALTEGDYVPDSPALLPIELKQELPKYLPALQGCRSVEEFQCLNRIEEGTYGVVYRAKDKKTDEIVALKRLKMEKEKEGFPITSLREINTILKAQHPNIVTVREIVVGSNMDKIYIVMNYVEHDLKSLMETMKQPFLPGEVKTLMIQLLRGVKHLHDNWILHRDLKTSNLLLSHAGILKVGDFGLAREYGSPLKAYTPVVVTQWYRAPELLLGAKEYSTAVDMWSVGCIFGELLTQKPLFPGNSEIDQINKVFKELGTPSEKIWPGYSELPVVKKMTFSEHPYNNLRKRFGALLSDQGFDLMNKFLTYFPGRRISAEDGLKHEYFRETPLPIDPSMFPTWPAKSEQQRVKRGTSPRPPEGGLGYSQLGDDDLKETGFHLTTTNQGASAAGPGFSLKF

Molecule `Cc1cc([C@@H](C)Nc2ccccc2C(=O)O)c2nc(N3CCOCC3)cc(=O)n2c1` has a kinase still bound, per cent of control (ACVRL1 (human)) of 100%, a kinase still bound, per cent of control (AKT3 (human)) of 80% and a kinase still bound, per cent of control (AURKA (human)) of 75%. It also gave a kinase still bound, per cent of control (BRAF (human)) of 74%, a kinase still bound, per cent of control (CAMK1G (human)) of 100% and a kinase still bound, per cent of control (CDC2L2 (human)) of 100%. The kinase still bound, per cent of control (CDC42BPB (human)) was 100%, the kinase still bound, per cent of control (CDK11B (human)) was 100% and the kinase still bound, per cent of control (CDK14 (human)) was 100%. The kinase still bound, per cent of control (CDK18 (human)) was 83%, the kinase still bound, per cent of control (CDK4 CCND1 (human)) was 38% and the kinase still bound, per cent of control (CLK1 (human)) was 56%. For the same molecule, the kinase still bound, per cent of control [1] was 100%, the kinase still bound, per cent of control [2] was 96% and the kinase still bound, per cent of control (EPHA4 (human)) was 91%. The kinase still bound, per cent of control (EPHA7 (human)) was 87%, the kinase still bound, per cent of control (ERBB2 (human)) was 96% and the kinase still bound, per cent of control (HIPK1 (human)) was 87%. For the same molecule, the kinase still bound, per cent of control (HIPK4 (human)) was 56%, the kinase still bound, per cent of control [3] was 70% and the kinase still bound, per cent of control [4] was 87%. It also gave a kinase still bound, per cent of control [5] of 100%, a kinase still bound, per cent of control (LIMK1 (human)) of 100% and a kinase still bound, per cent of control (MAP2K7 (human)) of 100%. For the same molecule, the kinase still bound, per cent of control (MAP4K4 (human)) was 98%, the kinase still bound, per cent of control (MINK1 (human)) was 100% and the kinase still bound, per cent of control (MYO3B (human)) was 51%. The kinase still bound, per cent of control (NEK2 (human)) was 100%, the kinase still bound, per cent of control (NEK3 (human)) was 65% and the kinase still bound, per cent of control (NEK6 (human)) was 100%. The kinase still bound, per cent of control (NUAK1 (human)) was 100%, the kinase still bound, per cent of control (PDGFRB (human)) was 58% and the kinase still bound, per cent of control (PLK2 (human)) was 100%. It also gave a kinase still bound, per cent of control (PRKACA (human)) of 100%, a kinase still bound, per cent of control (PRKCE (human)) of 100% and a kinase still bound, per cent of control (RAF1 (human)) of 97%. It also gave a kinase still bound, per cent of control (RET (human)) of 96%, a kinase still bound, per cent of control (RIOK2 (human)) of 35% and a kinase still bound, per cent of control (SIK2 (human)) of 90%. For the same molecule, the kinase still bound, per cent of control (SRPK3 (human)) was 83%, the kinase still bound, per cent of control (TLK1 (human)) was 100% and the kinase still bound, per cent of control (TXK (human)) was 100%.
